Earlier results in patent US8978468B2, “Nonvisual indication of an unwanted chemical in an ingestible substance” (priority 2009, dated 2015).
Like-named read-outs stand apart in the source and are kept apart here.

Tests used:
[1] = species and route not given
[2] = tested on: mammal (species unspecified); conditions: route not given

Compound: 2-aminoethanol
- Toxic Dose oral-rat LD50 (rat; oral): oral-rat LD50 1720 mg/kg

Compound: 2-methylpropane-1-thiol
- Toxic Dose gavage-rat LD50 (rat; gavage): gavage-rat LD50 7168 mg/kg
- Toxic Dose oral-rat LD50 (rat; oral): oral-rat LD50 7168 mg/kg

Compound: CC1OCCC1S (stereo not drawn) [2-methyltetrahydrofuran-3-thiol]
- Toxic Dose gavage-mouse LD50 (mouse; gavage): gavage-mouse LD50 1860 mg/kg

Compound: CC(C)C(C)S (stereo not drawn) [3-methylbutane-2-thiol]
- Toxic Dose gavage-rat LD50 [sex: M, F] (rat; gavage, sex: M, F): 540 mg/kg

Compound: NCCCC(=O)O [4-aminobutanoic acid]
- Toxic Dose oral-mouse LD50 (mouse; oral): oral-mouse LD50 12680 mg/kg
- Toxic Dose mouse LD50 (mouse; route not given): mouse LD50 7230 mg/kg

Compound: NC1CCCCC1 [cyclohexanamine]
- Toxic Dose LD50 [1]: LD50 224 mg/kg
- Toxic Dose oral-rat LD50 (rat; in vivo, po): oral-rat LD50 11 mg/kg

Compound: SC1CCCC1 [cyclopentanethiol]
- Toxic Dose oral-mouse LD50 [sex: M, F (5/group)] (mouse; oral, sex: M, F (5/group)): (5/group)] 2680 mg/kg

Compound: butane-1-thiol
- Toxic Dose gavage-rat LD50 (rat; gavage): gavage-rat LD50 1500 mg/kg

Compound: propan-1-amine
- Toxic Dose mammal (species unspecified) LD50 [2]: LD50 580 mg/kg
- Toxic Dose oral-rat LD50 (rat; oral): oral-rat LD50 370 mg/kg

Compound: propan-2-amine
- Toxic Dose mammal (species unspecified) LD50 [2]: LD50 500 mg/kg
- Toxic Dose oral-rat LD50 (rat; oral): oral-rat LD50 111 mg/kg
